Test results published in patent US9169279B2, “Crystallization method and bioavailability” (THAR PHARMACEUTICALS, INC., priority 2009, dated 2015).
Read-outs that look alike come from different tables or passages of the source.

Columns and labels:
[1] = in vivo; cited from earlier work
[2] = Dog PK study: zoledronic acid in serum after IV or oral capsule dosing, enteric or non-enteric coated, with or without excess coformer (LC/MS/MS); format: in vivo, Beagle dogs; conditions: beagle
Description: This can be attributed to the fact that both animals have historically been used in the safety evaluation and PK screening studies and are recommended by appropriate regulatory agencies. […] Additional tests included ID administration in rats and administration of enteric coated capsules in dogs.
USA. Some animals have surgical catheters (jugular vein and intraduodenum) were implanted to the animals prior to the studies. Beagle dogs from Marshall Farms, N.Y., USA, weighing from (9-12 kg) were used in the studies presented herein. Surgical catheters (jugular vein) were implanted prior to the studies.
The dose volume of each dog was adjusted based upon the average weight of the dog. • ii. […]
Blood samples were placed without the use of an anticoagulant and allowed to sit at room temperature for approximately 30 minutes. Samples were then centrifuged at a temperature of 4° C., at a speed of 13,000 rpm, for 5 minutes. Serum was collected and split into two aliquots and stored frozen (−80° C.) until analysis.
In this study, capsules of particulate materials (zoledronic:DL-lysine:water complex and excess pure DL-lysine).

## O=P(O)(O)C(O)(Cn1ccnc1)P(=O)(O)O [Zoledronic acid, (1-hydroxy-2-imidazol-1-yl-1-phosphono-ethyl)phosphonic acid]
[1]
  gastric and intestinal irritations: severe gastric and intestinal irritations
[2]; Leg 37: 63.1 mg Zoledronic, DL-lysine, and water complex with 1965.7 mg DL-lysine monohydrate, PO gelatin capsules
  bioavailability: > 8%
[2]; intravenous, 0.12 mg/kg, Leg 18, 15 min IV infusion 0.12 mg/kg, saline solution, Time 0 hour (pre-dose), read-out: Average serum concentration of 5 dogs
  concentration at 0 h: 0 ng/mL
[2]; intravenous, 0.12 mg/kg, Leg 18, 15 min IV infusion 0.12 mg/kg, saline solution, Time 0.0833 hour, read-out: Average serum concentration of 5 dogs
  concentration at 5 min: 309 ng/mL
[2]; intravenous, 0.12 mg/kg, Leg 18, 15 min IV infusion 0.12 mg/kg, saline solution, Time 0.1667 hour, read-out: Average serum concentration of 5 dogs
  concentration at 10 min: 525 ng/mL
[2]; intravenous, 0.12 mg/kg, Leg 18, 15 min IV infusion 0.12 mg/kg, saline solution, Time 0.25 hour, read-out: Average serum concentration of 5 dogs
  concentration at 0.25 h: 717 ng/mL
[2]; intravenous, 0.12 mg/kg, Leg 18, 15 min IV infusion 0.12 mg/kg, saline solution, Time 0.4167 hour, read-out: Average serum concentration of 5 dogs
  concentration at 25 min: 392 ng/mL
[2]; intravenous, 0.12 mg/kg, Leg 18, 15 min IV infusion 0.12 mg/kg, saline solution, Time 0.5 hour, read-out: Average serum concentration of 5 dogs
  concentration at 0.5 h: 323 ng/mL
[2]; intravenous, 0.12 mg/kg, Leg 18, 15 min IV infusion 0.12 mg/kg, saline solution, Time 0.75 hour, read-out: Average serum concentration of 5 dogs
  concentration at 0.75 h: 202 ng/mL
[2]; intravenous, 0.12 mg/kg, Leg 18, 15 min IV infusion 0.12 mg/kg, saline solution, Time 1 hour, read-out: Average serum concentration of 5 dogs
  concentration at 1 h: 133 ng/mL
[2]; intravenous, 0.12 mg/kg, Leg 18, 15 min IV infusion 0.12 mg/kg, saline solution, Time 1.25 hour, read-out: Average serum concentration of 5 dogs
  concentration at 1.25 h: 93.2 ng/mL
[2]; intravenous, 0.12 mg/kg, Leg 18, 15 min IV infusion 0.12 mg/kg, saline solution, Time 1.5 hour, read-out: Average serum concentration of 5 dogs
  concentration at 1.5 h: 69.1 ng/mL
[2]; intravenous, 0.12 mg/kg, Leg 18, 15 min IV infusion 0.12 mg/kg, saline solution, Time 2 hour, read-out: Average serum concentration of 5 dogs
  concentration at 2 h: 38.4 ng/mL
[2]; intravenous, 0.12 mg/kg, Leg 18, 15 min IV infusion 0.12 mg/kg, saline solution, Time 4 hour, read-out: Average serum concentration of 5 dogs
  concentration at 4 h: 9.14 ng/mL
[2]; intravenous, 0.12 mg/kg, Leg 18, 15 min IV infusion 0.12 mg/kg, saline solution, Time 8 hour, read-out: Average serum concentration of 5 dogs
  concentration at 8 h: 3.24 ng/mL
[2]; intravenous, 0.12 mg/kg, Leg 18, 15 min IV infusion 0.12 mg/kg, saline solution, Time 24 hour, read-out: Average serum concentration of 5 dogs
  concentration at 24 h: 1.21 ng/mL
[2]; iv, 0.05 mg/kg, zoledronic acid in dog serum, Leg 1, IV 0.05 mg/kg, saline solution, Time 0.0333 hour, read-out: Average serum concentration of 5 dogs
  concentration at 0.0333 hour: 413 ng/mL
[2]; iv, 0.05 mg/kg, zoledronic acid in dog serum, Leg 1, IV 0.05 mg/kg, saline solution, Time 0.0833 hour, read-out: Average serum concentration of 5 dogs
  concentration at 0.0833 hour: 312 ng/mL
[2]; iv, 0.05 mg/kg, zoledronic acid in dog serum, Leg 1, IV 0.05 mg/kg, saline solution, Time 0.1667 hour, read-out: Average serum concentration of 5 dogs
  concentration at 0.1667 hour: 229 ng/mL
[2]; iv, 0.05 mg/kg, zoledronic acid in dog serum, Leg 1, IV 0.05 mg/kg, saline solution, Time 0.25 hour, read-out: Average serum concentration of 5 dogs
  concentration at 0.25 hour: 179 ng/mL
[2]; iv, 0.05 mg/kg, zoledronic acid in dog serum, Leg 1, IV 0.05 mg/kg, saline solution, Time 0.75 hour, read-out: Average serum concentration of 5 dogs
  concentration at 0.75 hour: 75.9 ng/mL
[2]; iv, 0.05 mg/kg, zoledronic acid in dog serum, Leg 1, IV 0.05 mg/kg, saline solution, Time 1 hour, read-out: Average serum concentration of 5 dogs
  concentration at 1 hour: 56.1 ng/mL
[2]; iv, 0.05 mg/kg, zoledronic acid in dog serum, Leg 1, IV 0.05 mg/kg, saline solution, Time 1.5 hour, read-out: Average serum concentration of 5 dogs
  concentration at 1.5 hour: 30.4 ng/mL
[2]; iv, 0.05 mg/kg, zoledronic acid in dog serum, Leg 1, IV 0.05 mg/kg, saline solution, Time 2 hour, read-out: Average serum concentration of 5 dogs
  concentration at 2 hour: 17.6 ng/mL
[2]; iv, 0.05 mg/kg, zoledronic acid in dog serum, Leg 1, IV 0.05 mg/kg, saline solution, Time 4 hour, read-out: Average serum concentration of 5 dogs
  concentration at 4 hour: 4.29 ng/mL
[2]; iv, 0.05 mg/kg, zoledronic acid in dog serum, Leg 1, IV 0.05 mg/kg, saline solution, Time 8 hour, read-out: Average serum concentration of 5 dogs
  concentration at 8 hour: 1.13 ng/mL
[2]; iv, 0.05 mg/kg, zoledronic acid in dog serum, Leg 1, IV 0.05 mg/kg, saline solution, Time 24 hour, read-out: Average serum concentration of 5 dogs
  concentration at 24 hour: 0 ng/mL
[2]; iv, 0.05 mg/kg, zoledronic acid in dog serum, Leg 1, IV 0.05 mg/kg, saline solution, Time 48 hour, read-out: Average serum concentration of 5 dogs
  concentration at 48 hour: 0 ng/mL
[2]; iv, 0.12 mg/kg, Leg 38, 0.12 mg/kg IV, saline solution, 0 h, read-out: Average serum concentration of 4 dogs
  concentration at 0 h: 0 ng/mL
[2]; iv, 0.12 mg/kg, Leg 38, 0.12 mg/kg IV, saline solution, 5 min, read-out: Average serum concentration of 4 dogs
  concentration at 5 min: 288 ng/mL
[2]; iv, 0.12 mg/kg, Leg 38, 0.12 mg/kg IV, saline solution, 10 min, read-out: Average serum concentration of 4 dogs
  concentration at 10 min: 542 ng/mL
[2]; iv, 0.12 mg/kg, Leg 38, 0.12 mg/kg IV, saline solution, 0.25 h, read-out: Average serum concentration of 4 dogs
  concentration at 0.25 h: 711 ng/mL
[2]; iv, 0.12 mg/kg, Leg 38, 0.12 mg/kg IV, saline solution, read-out: Average serum concentration of 4 dogs
  concentration at 20 min: 529 ng/mL
[2]; iv, 0.12 mg/kg, Leg 38, 0.12 mg/kg IV, saline solution, 25 min, read-out: Average serum concentration of 4 dogs
  concentration at 25 min: 406 ng/mL
[2]; iv, 0.12 mg/kg, Leg 38, 0.12 mg/kg IV, saline solution, 0.5 h, read-out: Average serum concentration of 4 dogs
  concentration at 0.5 h: 358 ng/mL
[2]; iv, 0.12 mg/kg, Leg 38, 0.12 mg/kg IV, saline solution, 0.75 h, read-out: Average serum concentration of 4 dogs
  concentration at 0.75 h: 240 ng/mL
[2]; iv, 0.12 mg/kg, Leg 38, 0.12 mg/kg IV, saline solution, 1 h, read-out: Average serum concentration of 4 dogs
  concentration at 1 h: 174 ng/mL
[2]; iv, 0.12 mg/kg, Leg 38, 0.12 mg/kg IV, saline solution, 1.25 h, read-out: Average serum concentration of 4 dogs
  concentration at 1.25 h: 121 ng/mL
[2]; iv, 0.12 mg/kg, Leg 38, 0.12 mg/kg IV, saline solution, 1.5 h, read-out: Average serum concentration of 4 dogs
  concentration at 1.5 h: 90.6 ng/mL
[2]; iv, 0.12 mg/kg, Leg 38, 0.12 mg/kg IV, saline solution, 2 h, read-out: Average serum concentration of 4 dogs
  concentration at 2 h: 55.7 ng/mL
[2]; iv, 0.12 mg/kg, Leg 38, 0.12 mg/kg IV, saline solution, 4 h, read-out: Average serum concentration of 4 dogs
  concentration at 4 h: 15.1 ng/mL
[2]; iv, 0.12 mg/kg, Leg 38, 0.12 mg/kg IV, saline solution, 8 h, read-out: Average serum concentration of 4 dogs
  concentration at 8 h: 5.74 ng/mL
[2]; iv, 0.12 mg/kg, Leg 38, 0.12 mg/kg IV, saline solution, 24 h, read-out: Average serum concentration of 4 dogs
  concentration at 24 h: 2.49 ng/mL
[2]; iv, 0.183 mg/kg, Leg 13, 0.183 mg/kg IV, saline solution, 0 h, read-out: Average serum concentration of 5 dogs
  concentration at 0 h: 0.64 ng/mL
[2]; iv, 0.183 mg/kg, Leg 13, 0.183 mg/kg IV, saline solution, 5 min, read-out: Average serum concentration of 5 dogs
  concentration at 5 min: 477 ng/mL
[2]; iv, 0.183 mg/kg, Leg 13, 0.183 mg/kg IV, saline solution, 10 min, read-out: Average serum concentration of 5 dogs
  concentration at 10 min: 756 ng/mL
[2]; iv, 0.183 mg/kg, Leg 13, 0.183 mg/kg IV, saline solution, 0.25 h, read-out: Average serum concentration of 5 dogs
  concentration at 0.25 h: 1060 ng/mL
[2]; iv, 0.183 mg/kg, Leg 13, 0.183 mg/kg IV, saline solution, read-out: Average serum concentration of 5 dogs
  concentration at 20 min: 746 ng/mL
[2]; iv, 0.183 mg/kg, Leg 13, 0.183 mg/kg IV, saline solution, 25 min, read-out: Average serum concentration of 5 dogs
  concentration at 25 min: 629 ng/mL
[2]; iv, 0.183 mg/kg, Leg 13, 0.183 mg/kg IV, saline solution, 0.5 h, read-out: Average serum concentration of 5 dogs
  concentration at 0.5 h: 523 ng/mL
[2]; iv, 0.183 mg/kg, Leg 13, 0.183 mg/kg IV, saline solution, 0.75 h, read-out: Average serum concentration of 5 dogs
  concentration at 0.75 h: 343 ng/mL
[2]; iv, 0.183 mg/kg, Leg 13, 0.183 mg/kg IV, saline solution, 1 h, read-out: Average serum concentration of 5 dogs
  concentration at 1 h: 245 ng/mL
[2]; iv, 0.183 mg/kg, Leg 13, 0.183 mg/kg IV, saline solution, 1.25 h, read-out: Average serum concentration of 5 dogs
  concentration at 1.25 h: 183 ng/mL
[2]; iv, 0.183 mg/kg, Leg 13, 0.183 mg/kg IV, saline solution, 1.5 h, read-out: Average serum concentration of 5 dogs
  concentration at 1.5 h: 140 ng/mL
[2]; iv, 0.183 mg/kg, Leg 13, 0.183 mg/kg IV, saline solution, 2 h, read-out: Average serum concentration of 5 dogs
  concentration at 2 h: 80.9 ng/mL
[2]; iv, 0.183 mg/kg, Leg 13, 0.183 mg/kg IV, saline solution, 4 h, read-out: Average serum concentration of 5 dogs
  concentration at 4 h: 23.4 ng/mL
[2]; iv, 0.183 mg/kg, Leg 13, 0.183 mg/kg IV, saline solution, 8 h, read-out: Average serum concentration of 5 dogs
  concentration at 8 h: 8.78 ng/mL
